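Tested at 5 concentrations; 48 h exposure; 96-well plates; endpoints linearly interpolated, else capped at highest concentration. The concentration for full growth arrest is given as TGI.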
What was measured:
Assay in all cases: growth of human tumour cells (NCI), 48 h
MALME-3M melanoma = test system: MALME-3M melanoma
SF-268 CNS = test system: SF-268 CNS
SNB-19 CNS = test system: SNB-19 CNS
COLO 205 colon = test system: COLO 205 colon
SN12C renal = test system: SN12C renal
SNB-75 CNS = test system: SNB-75 CNS
NCI-H460 lung = test system: NCI-H460 lung
HCT-15 colon = test system: HCT-15 colon
MOLT-4 leukemia = test system: MOLT-4 leukemia
UACC-257 melanoma = test system: UACC-257 melanoma

Row | SMILES | TGI (MALME-3M melanoma) [µM] | TGI (SF-268 CNS) [µM] | TGI (SNB-19 CNS) [µM] | TGI (COLO 205 colon) [µM] | TGI (SN12C renal) [µM] | TGI (SNB-75 CNS) [µM] | TGI (NCI-H460 lung) [µM] | TGI (HCT-15 colon) [µM] | TGI (MOLT-4 leukemia) [µM] | TGI (UACC-257 melanoma) [µM]
1 | CCOC(=N)n1c(=O)n(C2=NCCN2)c2ccccc21 | > 100 | > 100 | > 100 | > 100 | > 100 | > 100 | > 100 | > 100 | > 100 | > 100
2 | C=CC[C@]12C[C@@H](C(=O)OC)N(C(=O)OC)[C@H]1N(S(=O)(=O)c1ccccc1)c1ccccc12 | > 100 | > 100 | > 100 | – | > 100 | > 100 | > 100 | > 100 | > 100 | 77.3
3 | COC(=O)c1c2c(cc3c1CC1(C3)Cc3cc4c(c(C(=O)OC)c3C1)CCCC4)CCCC2 | > 100 | – | – | > 100 | > 100 | – | – | > 100 | > 100 | > 100
4 | Nc1c(-c2cccc3ccccc23)c2ccc([N+](=O)[O-])cc2c(=O)n1-c1nc2ccccc2s1 | 13.4 | > 31.7 | > 49.4 | > 100 | > 100 | 9.65 | > 100 | > 48 | > 27.5 | > 80.8
5 | c1ccc2sc(SCSc3nc4ccccc4s3)nc2c1 | > 100 | > 100 | > 100 | – | > 100 | > 100 | > 100 | > 100 | > 100 | > 100
6 | Clc1ccc(-c2nn3c(-c4ccncc4)nnc3s2)cc1 | > 100 | > 100 | > 100 | > 100 | > 100 | – | > 100 | 90.7 | > 100 | > 100
7 | N#C/C(=C\c1cc(Br)c(O)c(Br)c1)c1cccnc1 | 41.6 | > 100 | > 100 | > 100 | > 100 | > 100 | > 100 | 44 | > 100 | 73.5
8 | O=C(N=Nc1cc(Cl)ccc1Cl)NNc1cc(Cl)ccc1Cl | 82.1 | – | – | 41.1 | 52.5 | 57.5 | 44.5 | 64.4 | – | –
9 | Oc1ccccc1/C=N/c1nc2cc3sc(/N=C/c4ccccc4O)nc3cc2s1 | > 100 | > 100 | > 100 | 20.7 | > 100 | > 100 | > 100 | > 100 | 81.2 | > 100
10 | CN(C)c1nc(=NCc2ccccc2)ss1 | > 10 | > 10 | > 10 | > 10 | > 10 | > 10 | > 10 | > 10 | > 6.19 | > 10
11 | O=C1C=CC(=O)N1Nc1ccc([N+](=O)[O-])cc1[N+](=O)[O-] | 31.1 | > 100 | > 100 | > 60.7 | > 100 | > 100 | > 100 | > 100 | > 75.2 | > 100
12 | CC(C)/C(Cl)=N\OC(=O)Nc1ccc(C#N)cc1 | 6.81 | 36.7 | 33.7 | 3.24 | 26.6 | 31.6 | 33.4 | 22.6 | 5.41 | 25.3
13 | COc1ccc2cc3c4cc5c(cc4cc[n+]3cc2c1OC)OCO5 | 15.1 | 18.5 | 39.6 | 6.73 | 54.2 | 67 | > 100 | > 100 | > 100 | 30.4
14 | Cc1cc(=O)c2c([nH]1)NS(=O)(=O)NC2=O | > 100 | > 100 | > 100 | > 100 | > 100 | > 100 | – | > 100 | > 100 | > 100
15 | BrC/C=C/C[P+](c1ccccc1)(c1ccccc1)c1ccccc1 | > 100 | > 100 | > 100 | 16.1 | > 100 | 78.3 | > 100 | – | > 100 | > 100
16 | CC1(C)N=C(C(N)=O)c2ncn(CCCO)c2N1 | > 100 | > 100 | > 100 | > 100 | > 100 | > 100 | > 100 | > 100 | – | > 100
17 | O=c1c2ccccc2nc2[nH][nH]c(=S)n12 | – | > 100 | > 100 | > 100 | > 100 | > 100 | > 100 | > 100 | > 100 | > 100
18 | O=C(CNc1ccccc1Cl)Nn1c(-c2ccccc2)nc2ccccc2c1=O | – | > 100 | > 10 | 34.6 | > 100 | 63 | > 100 | – | 57.7 | > 100
19 | Cc1cn(C2OC(C)(CO)C(O)C2O)c(=O)[nH]c1=O (centres undefined) | > 100 | > 100 | > 100 | > 100 | > 100 | > 100 | > 100 | > 100 | > 100 | –
20 | O=c1cc(N=P(c2ccccc2)(c2ccccc2)c2ccccc2)n(-c2ccccc2)c(=O)n1-c1ccccc1 | 33.5 | > 100 | 63.5 | – | 75.3 | 39.9 | 22 | > 100 | 22 | > 100
21 | CC(=O)N(C(C)=O)C1=C2c3ccccc3N(S(=O)(=O)c3ccccc3)C2n2c(=O)n(-c3ccccc3)c(=O)n2C1 (centres undefined) | 46.5 | > 100 | > 100 | 80.2 | > 100 | 51.3 | 42.3 | > 100 | – | > 100
22 | CSc1cc(Cl)c(C)cc1S(=O)(=O)NC(=O)NNc1ccc(Cl)cc1 | > 100 | > 100 | > 100 | > 100 | > 100 | > 100 | > 100 | > 100 | > 100 | –
